Structures can show the parent of a compound that is named as a salt.
Columns and labels:
[1] = system: orthotopic KPC-derived PDAC tumor; assay: Efficacy and survival in the orthotopic KPC-derived PDAC model; format: in vivo, B6/129SF1/J mice; conditions: 40 mg/kg twice per week, three IV administrations, n=3
MC38 cells = assay: MTS cytotoxicity assay, MC38 cells; format: cell-based, murine; conditions: MC38 colon cancer cells
Experimental: (§1) The cytotoxicity of purified MSNPs was assessed in a standard MTS assay (CellTiter 96® AQueous One Solution Cell Proliferation Assay, Promega). KPC or MC38 cells were plated at a density of 5×10^3 cells per well in a 96-well plate and cultured for 24 hr. The medium was replaced with fresh medium containing the different NPs at the indicated concentrations. Non-treated cells were used as control. After a 48 hr treatment, the medium was replaced with 100 μL fresh medium containing MTS solution (5:1, v/v medium/CellTiter 96® Aqueous stock solution) for further culture at 37° C. for 1 hr. The absorbance of the culture wells at 490 nm was directly recorded by a microplate reader (M5e, Molecular Device, USA). Wells without cells but contained the same MTS solution were used as blank. The relative cell viability (%) is [(the absorption of treated well−blank)/(the absorption of control well−blank)]×100.

KPC cells = assay: MTS cytotoxicity assay, KPC cells; format: cell-based, murine; conditions: KPC pancreatic cancer cells
Experimental: as §1

orthotopic MC38 tumor = assay: Efficacy and survival in the orthotopic MC38 tumor chunk colon cancer model; format: in vivo, C57BL/6 mice
[2] = Toxicity study (bone marrow, GI tract, liver, body weight); format: in vivo, C57BL/6 mice; conditions: 24 h after 4 IV injections of 40 mg/kg irinotecan
Description: Irinotecan exerts major systemic toxicological effects (e.g., neutropenia and diarrhea) when used as a free drug monotherapy or in combination with 5-FU (i.e., FOLFIRI regimen) in CRC (Cunningham et al. (1998) The Lancet, 352, 1413-1418; Rougier et al. (1998) The Lancet, 352: 1407-1412; Saltz et al. (2000) N. Engl. J Med. 343: 905-914). This constitutes one of the principal reasons for considering encapsulated irinotecan delivery. […] The possibility of acute myelosuppression effects was assessed by the collection of whole blood 24 h after the last IV injection, as well as looking at bone marrow cellularity (Id.). […] The visual appearance was confirmed by computer software that semi-quantitatively scored the total marrow cellularity and hematopoietic nuclei in the histology images (FIG. 13, panel A) (Travlos (2006) Toxicol. Pathol. 34: 548-565). […]
To compare the toxicity of different irinotecan formulations, a toxicity study was performed in healthy female C57BL/6 mice using a published protocol (Iusuf et al. (2014) Mol. Cancer Ther. 13: 492-503). […] H&E staining to assess bone marrow and hematopoietic cellularity in the sternum was analyzed by Aperio ImageScope software (Travlos (2006) Toxicol. Pathol. 34: 548-565).

non-metastatic PDAC = conditions: cited from earlier work

Structure (SMILES)	primary tumor growth and metastasis (IVIS imaging) [1]	in vitro killing effect (MTS) (MC38 cells)	in vitro killing effect (MTS) (KPC cells)	tumor growth by IVIS bioluminescence imaging (orthotopic MC38 tumor; 40 mg/kg irinotecan equivalent IV twice per week, up to day 21, n=6)	survival (Kaplan-Meier, Log-rank) (orthotopic MC38 tumor; 40 mg/kg irinotecan equivalent IV twice per week, up to six administrations, n=6)	rate of apoptosis (cleaved caspase-3 IHC) in orthotopic tumors (orthotopic MC38 tumor; 24 h after the 4th IV injection, 40 mg/kg, n=3) [%]	bone marrow cellularity / myelosuppressive effects (sternum H&E) [2]	neutrophil count / neutropenia (differential WBC counts) [2]	disease-free survival (non-metastatic PDAC) [months]
CCc1c2c(nc3ccc(OC(=O)N4CCC(N5CCCCC5)CC4)cc13)-c1cc3c(c(=O)n1C2)COC(=O)[C@]3(O)CC [free irinotecan, Irinotecan hydrochloride trihydrate]	inefficient tumor inhibition	most robust killing effect	most robust killing effect	no significant tumor growth inhibition	no significant survival benefit	~2.5	significant myelosuppressive effects	significant degree of neutropenia	–
Nc1ccn([C@@H]2O[C@H](CO)[C@@H](O)C2(F)F)c(=O)n1 [gemcitabine]	–	–	–	–	–	–	–	–	12.8
